ChEMBL document CHEMBL5113376, “Antimalarial application of quinones: A recent update” (Eur J Med Chem, 2021)
Converted amounts (≈) assume the structure as drawn.

Columns and labels:
Plasmodium falciparum [1] = assay: Antimalarial activity against Plasmodium falciparum 3D7 infected in human erythrocytes; format: functional, organism-based; details: 3D7, Erythrocyte
HEK293 = assay: Cytotoxicity against HEK293 cells incubated for 48 hrs by MTT assay; format: functional; details: Homo sapiens
Plasmodium falciparum [2] = assay: Antimalarial activity against Chloroquine resistant blood stage Plasmodium falciparum clone W2; format: functional, organism-based
Plasmodium berghei [3] = assay: In vivo antiplasmodial activity against Plasmodium berghei infected in Swiss mouse assessed as reduction of parasitaemia at 100 mg/kg, po for 3 days; format: functional; parameters: scale not given: the % may be the effect or the level left; details: time 3 day
Plasmodium falciparum [4] = assay: Antimalarial activity against Plasmodium falciparum W2 incubated for 24 hrs; format: functional, organism-based; details: for IC50: Plasmodium falciparum, W2, 24 h
Plasmodium falciparum [5] = assay: Antiplasmodial activity against Chloroquine resistant Plasmodium falciparum FcB1 incubated for 48 hrs by SYBR green I based fluorescence assay; format: functional, organism-based; details: FcB1, 48 h
Plasmodium berghei [6] = assay: In vivo plasmodial activity against Plasmodium berghei ANKA infected in Swiss mouse assessed as survival rate at 50 mg/kg, ip for 4 days after infection relative to control; format: functional; details: time 4 day
Plasmodium falciparum [7] = assay: Antimalarial activity against chloroquine resistant Plasmodium falciparum K1 incubated for 72 hrs by SYBR green staining based fluorescence reader method; format: functional, organism-based; details: K1, 72 h
[8] = Cytotoxicity against African green monkey Vero cells; format: toxicity, cell-based; details: chlorocebus sabaeus
[9] = Selectivity index, ratio of CC50 for african green monkey Vero cells to IC50 for Chloroquine resistant Plasmodium falciparum K1; format: toxicity; details: read-out: Ratio CC50/IC50
Plasmodium falciparum [10] = assay: Antiplasmodial activity against Plasmodium falciparum K1; format: functional, organism-based
Plasmodium falciparum [11] = assay: Antimalarial activity against Plasmodium falciparum W2; format: functional, organism-based
Plasmodium falciparum [12] = assay: Antimalarial activity against Plasmodium falciparum D10; format: functional, organism-based
[13] = Cytotoxicity against HMEC-1 cells; format: toxicity, cell-based; details: human
Plasmodium falciparum [14] = assay: Antimalarial activity against Plasmodium falciparum Dd2 treated for 48 hrs followed by hypoxanthine addition; format: functional, organism-based; details: Dd2, 48 h
Plasmodium berghei [15] = assay: In vivo antiplasmodial activity against Chloroquine susceptible Plasmodium berghei ANKA infected in CD-1 mouse assessed as decrease in parasitaemia at 30 to 50 mg/kg/day, ip relative to control; format: functional; parameters: scale not given: the % may be the effect or the level left; details: dose 30-50 mg/kg/day
Plasmodium falciparum [16] = assay: Antiplasmodial activity against Chloroquine resistant Plasmodium falciparum FcB1 incubated for 48 hrs; format: functional, organism-based; details: FcB1, 48 h
Plasmodium falciparum [17] = assay: Antiplasmodial activity against Chloroquine resistant plasmodium falciparum FCR-3; format: functional, organism-based
Plasmodium falciparum [18] = assay: Antimalarial activity against Plasmodium falciparum K14 incubated for 42 hrs in presence of 3H-hypoxanthine by top-count microbeta counter analysis; format: functional, organism-based
Plasmodium falciparum [19] = assay: Antimalarial activity against chloroquine sensitive Plasmodium falciparum D10 incubated for 72 hrs by spectrophotometric analysis; format: functional, organism-based; details: D10, 72 h
Plasmodium falciparum [20] = assay: Antimalarial activity against chloroquine resistant Plasmodium falciparum W2 incubated for 72 hrs by spectrophotometric analysis; format: functional, organism-based; details: W2, 72 h
[21] = Cytotoxicity against HMEC-1 cells treated for 72 hrs by MTT assay; format: toxicity, cell-based; details: human
Plasmodium falciparum [22] = assay: Antiplasmodial activity against chloroquine sensitive Plasmodium falciparum F-32 Tanzania incubated for 48 hrs; format: functional, organism-based
Plasmodium falciparum [23] = assay: Antimalarial activity against Plasmodium falciparum K1 by 96-well microtitre plate method based scintillation counting analysis; format: functional, organism-based; details: Plasmodium falciparum, K1
Plasmodium falciparum [24] = assay: Antimalarial activity against Plasmodium falciparum; format: functional, organism-based
Plasmodium falciparum [25] = assay: Antimalarial activity against Plasmodium falciparum Dd2 by 96-well microtitre plate method based scintillation counting analysis; format: functional, organism-based
Plasmodium falciparum [26] = assay: Antiplasmodial activity against Plasmodium falciparum Dd2 incubated for 48 hrs; format: functional, organism-based; details: Dd2, 48 h
Plasmodium falciparum [27] = assay: Antiplasmodial activity against Plasmodium falciparum 3D7 incubated for 48 hrs; format: functional, organism-based; details: 3D7, 48 h

Compound `COc1ccc(CC2=C(O)C(=O)c3ccccc3C2=O)cc1` has an IC50 (Plasmodium falciparum [1]) of 16 µM.
Compound `O=C1C(O)=C(Cc2ccccc2)C(=O)c2ccccc21` has an IC50 (Plasmodium falciparum [1]) of 0.443 µM and a CC50 (HEK293) of 54.6 µM.
With `O=C1C(O)=C(CN2CC3CCC2CC3)C(=O)c2ccccc21` the IC50 (Plasmodium falciparum [2]) was 1.3 µM and the Activity (Plasmodium berghei [3]) was “<=63%”.
For `CCCN(CCC)CC1=C(O)C(=O)c2ccccc2C1=O`, the IC50 (Plasmodium falciparum [2]) was 1.9 µM and the Activity (Plasmodium berghei [3]) was “<=63%”.
Compound `CC(=O)OC1=C(CC=C(C)C)C(=O)c2ccccc2C1=O` has an IC50 (Plasmodium falciparum [4]) of 2.3 µM and an IC100 (Plasmodium falciparum [4]; time 24 hrs) of 4.7 µM.
In the case of `CC(C)(C)CC1=C(O)C(=O)c2ccccc2C1=O`, the IC50 (Plasmodium falciparum [1]) is reported as 15.2 µM.
With `COc1ccc2c(c1)C(=O)C(=O)C1=C2OC(C)C1(C)C` (configuration not stated) the IC50 (Plasmodium falciparum [5]) was 0.845 µM and the Activity (Plasmodium berghei [6]) was 100%.
With `COc1ccc2c(c1)C1=C(C(=O)C2=O)C(C)(C)C(C)O1` (configuration not stated) the IC50 (Plasmodium falciparum [5]) was 0.58 µM.
Compound `COc1cccc2c1C1=C(C(=O)C2=O)C(C)(C)C(C)O1` (configuration not stated) has an IC50 (Plasmodium falciparum [5]) of 0.63 µM and an Activity (Plasmodium berghei [6]) of 80%.
Compound `CC1(C)OC2=C(CC1I)C(=O)C(=O)c1ccccc12` (configuration not stated) has an IC50 (Plasmodium falciparum [4]) of 15.8 µM.
`Cc1cc(O)c2c(c1)C(=O)c1cc(O)c(CN3CCN(C)CC3)c(O)c1C2=O` gave an IC50 (Plasmodium falciparum [7]) of 2.48 µM, a CC50 [8] of 782 µM and a selectivity ratio [9] of 315.
Compound `O=C(O)c1ccc2c(n1)C(=O)C1=C(C2=O)S(=O)(=O)C=CN1` has an IC50 (Plasmodium falciparum [10]) of 0.6 µM.
Compound `COC1=C(Cc2ccc(OC)cc2)C(=O)C2=C(NCCS2(=O)=O)C1=O` has an IC50 (Plasmodium falciparum [11]) of 1.21 µM, an IC50 (Plasmodium falciparum [12]) of 1.22 µM and an IC50 [13] of 17.9 µM.
In the case of `CC1=C(Cc2ccc(O)cc2)C(=O)c2ccccc2C1=O`, the IC50 (Plasmodium falciparum [14]) is reported as 0.055 µM and the Activity (Plasmodium berghei [15]) is reported as 20.7%.
In the case of `COc1cc2c(cc1O)CO[C@@H]1C3=C(OC[C@H]21)C(=O)c1ccccc1C3=O`, the IC50 (Plasmodium falciparum [16]) is reported as 0.04 µM.
Compound `COC(=O)/C(=C\CC/C(C)=C/CC/C(C)=C/CC1=CC(=O)C=C(C)C1=O)CCC=C(C)C` has an IC50 (Plasmodium falciparum [17]) of 8.2 µM.
For `CN(C)c1ccc(N2C(=O)C(Oc3ccc(Cl)cc3Cl)C2c2ccc3c(c2)C(=O)c2ccccc2C3=O)cc1` (configuration not stated), the IC50 (Plasmodium falciparum [18]) was 48 µM.
`COc1cc2c(cc1O)[C@H]1COC3=C(C(=O)c4ccccc4C3=O)[C@H]1OC2` gave an IC50 (Plasmodium falciparum [16]) of 0.03 µM.
In the case of `CCC1=C(NC(=O)C(C)(C)C)C(=O)C2=C(NCCS2(=O)=O)C1=O`, the IC50 (Plasmodium falciparum [19]) is reported as 0.39 µM, the IC50 (Plasmodium falciparum [20]) is reported as 0.58 µM and the IC50 at 72 h [21] is reported as 1.6 µM.
For `O=C1c2ccccc2C(=O)c2cc(C3C(Oc4ccc(Cl)cc4)C(=O)N3c3cccc4ccccc34)ccc21` (configuration not stated), the IC50 (Plasmodium falciparum [18]) was 45 µM.
For `O=C1c2ccccc2C(=O)c2cc(C3C(Oc4ccccc4)C(=O)N3c3cccc4ccccc34)ccc21` (configuration not stated), the IC50 (Plasmodium falciparum [18]) was 41 µM.
Compound `O=C1C=C(OCc2cn(-c3ccccc3)nn2)C(=O)c2ccccc21` has an IC50 (Plasmodium falciparum [22]) of 1.2 µM.
Compound `COc1ccc(N2C(=O)C(Oc3ccccc3)C2c2ccc3c(c2)C(=O)c2ccccc2C3=O)cc1` (configuration not stated) has an IC50 (Plasmodium falciparum [18]) of 27 µM.
Compound `O=C(O)c1cc2c(s1)C(=O)C1=C(C2=O)S(=O)(=O)C=CN1` has an IC50 (Plasmodium falciparum [10]) of 0.035 µM.
In the case of `CC1=C(Cc2ccc(C(C)(C)C)cc2)C(=O)c2ccccc2C1=O`, the IC50 (Plasmodium falciparum [14]) is reported as 0.054 µM and the Activity (Plasmodium berghei [15]) is reported as 20.7%.
In the case of `COC1=C(Cc2ccc(Cl)cc2)C(=O)C2=C(NCCS2(=O)=O)C1=O`, the IC50 (Plasmodium falciparum [11]) is reported as 1.63 µM, the IC50 (Plasmodium falciparum [12]) is reported as 1.9 µM and the IC50 [13] is reported as 8.51 µM.
`O=C1C=C(OCc2cn(/C=C/c3ccc(C(F)(F)F)cc3)nn2)C(=O)c2ccccc21` gave an IC50 (Plasmodium falciparum [22]) of 3.3 µM.
`COc1cc(OC)c(-c2c(C)cc(O)c3c2C(=O)c2cccc(O)c2C3=O)c(O)c1C(C)=O` gave an IC50 (Plasmodium falciparum [23]) of 0.751 µg/mL (≈ 1.67 µM).
`Cc1oc2c(c1C(=O)NC(CCC(N)=O)C(=O)O)C(=O)c1ccccc1C2=O` (configuration not stated) showed an IC50 (Plasmodium falciparum [24]) of 2 µM.
Work on `Cc1cc2c(c(C3=C(O)C(=O)c4c(O)ccc(O)c4C3=O)c1)C(=O)c1c(O)c3c(c(O)c1C2=O)C=CC(C)(C)O3` yielded an IC50 (Plasmodium falciparum [25]) of 1.57 µg/mL (≈ 2.9 µM).
For `CCCC/C=C/C1=C(O)C(=O)c2ccccc2C1=O`, the IC50 (Plasmodium falciparum [26]) was 0.22 µM and the IC50 (Plasmodium falciparum [27]) was 2.4 µM.
`CC(C)=CCC1=C(O)C(=O)c2c(O)ccc(O)c2C1=O` gave an IC50 (Plasmodium falciparum [25]) of 0.8 µg/mL (≈ 2.92 µM).
In the case of `CCC1=C(NC(=O)C(C)(C)C)C(=O)C2=C(C1=O)S(=O)(=O)CCN2`, the IC50 (Plasmodium falciparum [19]) is reported as 6.15 µM, the IC50 (Plasmodium falciparum [20]) is reported as 6.31 µM and the IC50 at 72 h [21] is reported as greater than 100 µM.
